Data from PubChem BioAssay (NCI).
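Briefly, cells in 96-well plates were exposed to five compound concentrations for 48 h, and endpoints were estimated by linear interpolation. GI50: concentration for 50% inhibition of growth. TGI denotes the concentration required for complete inhibition of growth.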

Columns and labels:
Test in all cases: inhibition of tumour cell growth, NCI panel, 48 h
OVCAR-5 ovarian = system: OVCAR-5 ovarian
A498 renal = system: A498 renal
MDA-MB-231 breast = system: MDA-MB-231 breast
HS 578T breast = system: HS 578T breast
SNB-75 CNS = system: SNB-75 CNS
HOP-62 NSCLC = system: HOP-62 NSCLC
CAKI-1 renal = system: CAKI-1 renal
NCI-H522 lung = system: NCI-H522 lung
BT-549 breast = system: BT-549 breast
T-47D breast = system: T-47D breast
OVCAR-8 ovarian = system: OVCAR-8 ovarian
NCI/ADR-RES ovarian = system: NCI/ADR-RES ovarian
OVCAR-4 ovarian = system: OVCAR-4 ovarian
A549 NSCLC = system: A549 NSCLC
NCI-H460 lung = system: NCI-H460 lung
HL-60(TB) leukemia = system: HL-60(TB) leukemia
HCT-15 colon = system: HCT-15 colon
IGROV1 ovarian = system: IGROV1 ovarian
PC-3 prostate = system: PC-3 prostate
SK-MEL-2 melanoma = system: SK-MEL-2 melanoma
SK-MEL-5 melanoma = system: SK-MEL-5 melanoma
HT29 colon = system: HT29 colon
HOP-92 NSCLC = system: HOP-92 NSCLC
SNB-19 CNS = system: SNB-19 CNS
UACC-62 melanoma = system: UACC-62 melanoma
UACC-257 melanoma = system: UACC-257 melanoma
SF-295 CNS = system: SF-295 CNS
HCC-2998 colon = system: HCC-2998 colon
SN12C renal = system: SN12C renal
SF-268 CNS = system: SF-268 CNS
786-0 renal = system: 786-0 renal
K-562 leukemia = system: K-562 leukemia
NCI-H226 lung = system: NCI-H226 lung
U251 CNS = system: U251 CNS
TK-10 renal = system: TK-10 renal
DU-145 prostate = system: DU-145 prostate
UO-31 renal = system: UO-31 renal
ACHN renal = system: ACHN renal
M14 melanoma = system: M14 melanoma
SK-MEL-28 melanoma = system: SK-MEL-28 melanoma
KM12 colon = system: KM12 colon
HCT-116 colon = system: HCT-116 colon
SF-539 CNS = system: SF-539 CNS
MCF7 breast = system: MCF7 breast
EKVX NSCLC = system: EKVX NSCLC
OVCAR-3 ovarian = system: OVCAR-3 ovarian
MALME-3M melanoma = system: MALME-3M melanoma
NCI-H23 lung = system: NCI-H23 lung
COLO 205 colon = system: COLO 205 colon
LOX IMVI melanoma = system: LOX IMVI melanoma
SR leukemia = system: SR leukemia
SK-OV-3 ovarian = system: SK-OV-3 ovarian
MOLT-4 leukemia = system: MOLT-4 leukemia
RPMI-8226 leukemia = system: RPMI-8226 leukemia
SW-620 colon = system: SW-620 colon
CCRF-CEM leukemia = system: CCRF-CEM leukemia

Structure (SMILES): O=C(N/N=C/c1cccs1)c1[nH]c2ccc(Br)cc2c1-c1ccccc1
- GI50 (OVCAR-5 ovarian): 109 nM
- TGI (OVCAR-5 ovarian): > 100000 nM
- GI50 (A498 renal): > 83800 nM
- TGI (A498 renal): > 100000 nM
- GI50 (MDA-MB-231 breast): 128 nM
- TGI (MDA-MB-231 breast): 687 nM
- GI50 (HS 578T breast): 65.7 nM
- TGI (HS 578T breast): > 100000 nM
- GI50 (SNB-75 CNS): 226 nM
- TGI (SNB-75 CNS): 8490 nM
- GI50 (HOP-62 NSCLC): 150 nM
- TGI (HOP-62 NSCLC): > 93400 nM
- GI50 (CAKI-1 renal): 153 nM
- TGI (CAKI-1 renal): > 100000 nM
- GI50 (NCI-H522 lung): 24.2 nM
- TGI (NCI-H522 lung): 80.9 nM
- GI50 (BT-549 breast): 97.6 nM
- TGI (BT-549 breast): 474 nM
- GI50 (T-47D breast): 8840 nM
- TGI (T-47D breast): > 100000 nM
- GI50 (OVCAR-8 ovarian): 44.2 nM
- GI50 (NCI/ADR-RES ovarian): 39.2 nM
- GI50 (OVCAR-4 ovarian): 340 nM
- TGI (OVCAR-4 ovarian): > 100000 nM
- GI50 (A549 NSCLC): 125 nM
- TGI (A549 NSCLC): > 100000 nM
- GI50 (NCI-H460 lung): 65.7 nM
- TGI (NCI-H460 lung): 3220 nM
- GI50 (HL-60(TB) leukemia): 86.8 nM
- TGI (HL-60(TB) leukemia): 358 nM
- GI50 (HCT-15 colon): 41.8 nM
- TGI (HCT-15 colon): > 57200 nM
- GI50 (IGROV1 ovarian): 81.8 nM
- TGI (IGROV1 ovarian): > 100000 nM
- GI50 (PC-3 prostate): 224 nM
- TGI (PC-3 prostate): > 100000 nM
- GI50 (SK-MEL-2 melanoma): 150 nM
- TGI (SK-MEL-2 melanoma): > 100000 nM
- GI50 (SK-MEL-5 melanoma): 63.8 nM
- TGI (SK-MEL-5 melanoma): 230 nM
- GI50 (HT29 colon): 36.8 nM
- TGI (HT29 colon): 1570 nM
- GI50 (HOP-92 NSCLC): 1120 nM
- TGI (HOP-92 NSCLC): > 100000 nM
- GI50 (SNB-19 CNS): 124 nM
- TGI (SNB-19 CNS): > 100000 nM
- GI50 (UACC-62 melanoma): 51.6 nM
- TGI (UACC-62 melanoma): > 100000 nM
- GI50 (UACC-257 melanoma): 297 nM
- TGI (UACC-257 melanoma): > 100000 nM
- GI50 (SF-295 CNS): 39.2 nM
- TGI (SF-295 CNS): 39600 nM
- GI50 (HCC-2998 colon): 142 nM
- TGI (HCC-2998 colon): 43300 nM
- GI50 (SN12C renal): 72.8 nM
- TGI (SN12C renal): > 51200 nM
- GI50 (SF-268 CNS): 404 nM
- TGI (SF-268 CNS): > 100000 nM
- GI50 (786-0 renal): 186 nM
- TGI (786-0 renal): > 100000 nM
- GI50 (K-562 leukemia): 36.7 nM
- TGI (K-562 leukemia): > 100000 nM
- GI50 (NCI-H226 lung): 240 nM
- TGI (NCI-H226 lung): > 100000 nM
- GI50 (U251 CNS): 74.6 nM
- TGI (U251 CNS): > 100000 nM
- GI50 (TK-10 renal): 5740 nM
- TGI (TK-10 renal): > 100000 nM
- GI50 (DU-145 prostate): 63 nM
- TGI (DU-145 prostate): > 100000 nM
- GI50 (UO-31 renal): 120 nM
- TGI (UO-31 renal): > 100000 nM
- GI50 (ACHN renal): 103 nM
- TGI (ACHN renal): > 82900 nM
- GI50 (M14 melanoma): 69.9 nM
- TGI (M14 melanoma): > 100000 nM
- GI50 (SK-MEL-28 melanoma): 612 nM
- TGI (SK-MEL-28 melanoma): > 100000 nM
- GI50 (KM12 colon): 152 nM
- TGI (KM12 colon): > 100000 nM
- GI50 (HCT-116 colon): 34.5 nM
- TGI (HCT-116 colon): > 100000 nM
- GI50 (SF-539 CNS): 28.3 nM
- TGI (SF-539 CNS): 115 nM
- GI50 (MCF7 breast): 37.4 nM
- TGI (MCF7 breast): > 35500 nM
- GI50 (EKVX NSCLC): 2200 nM
- TGI (EKVX NSCLC): > 100000 nM
- GI50 (OVCAR-3 ovarian): 63.7 nM
- TGI (OVCAR-3 ovarian): > 72900 nM
- GI50 (MALME-3M melanoma): 179 nM
- TGI (MALME-3M melanoma): > 100000 nM
- GI50 (NCI-H23 lung): 88.3 nM
- TGI (NCI-H23 lung): > 100000 nM
- GI50 (COLO 205 colon): 152 nM
- TGI (COLO 205 colon): 320 nM
- GI50 (LOX IMVI melanoma): 34.7 nM
- TGI (LOX IMVI melanoma): 22800 nM
- GI50 (SR leukemia): 41.2 nM
- TGI (SR leukemia): > 100000 nM
- GI50 (SK-OV-3 ovarian): 345 nM
- TGI (SK-OV-3 ovarian): > 100000 nM
- GI50 (MOLT-4 leukemia): 152 nM
- TGI (MOLT-4 leukemia): > 100000 nM
- GI50 (RPMI-8226 leukemia): 54.2 nM
- TGI (RPMI-8226 leukemia): > 76500 nM
- GI50 (SW-620 colon): 40.5 nM
- TGI (SW-620 colon): > 100000 nM
- GI50 (CCRF-CEM leukemia): 61.9 nM
- TGI (CCRF-CEM leukemia): > 100000 nM
